16 molecules from patent US11446287B2, “Compounds and methods for EP300 or CBP modulation and indications therefor” (Opna Immuno-Oncology SA, priority 2019, dated 2022) can be followed below.

The target in this test is T1, Recombinant human EP300 containing the bromodomain (EP300-BD (1040-1161)) (Homo sapiens, UniProt Q09472).
T1 construct: Recombinant human EP300 bromodomain (EP300-BD (1040-1161)); made in house; host or cells: E. coli BL21-CodonPlus (DE3), modified pET vector
T1 sequence (Q09472 1040-1161): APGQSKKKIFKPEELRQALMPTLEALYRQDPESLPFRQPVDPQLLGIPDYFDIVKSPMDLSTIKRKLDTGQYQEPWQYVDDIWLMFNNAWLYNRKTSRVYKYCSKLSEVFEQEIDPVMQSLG
The experiment in a line: EP300 Alphascreen binding assay. The procedure, abridged: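 Displacement of a biotinylated acetyl-K56 histone H3 peptide from the N-His bromodomain construct (1040-1161) measured by AlphaScreen proximity, beads at 7.5 μg/ml final, read 60 min after addition. Protein, peptide and compound first incubated 1 h at room temperature, pH 7.5 HEPES buffer; IC50 by four-parameter logistic fit.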

One may read the IC50 as the midpoint of a concentration-inhibition curve.

On to `Cc1noc(C)c1-c1cnc2c(c1)c(C1CCC(C(=O)O)CC1)cn2-c1ccc(F)cc1F` (stereo not shown) [P-0434, 4-(1-(2,4-difluorophenyl)-5-(3,5-dimethylisoxazol-4-yl)-1H-pyrrolo[2,3-b]pyridin-3-yl)cyclohexane-1-carboxylic acid], for which the IC50 is 0.0001 to 1 µM.

For the molecule `CCOc1cc(C(=O)O)nc(OCC)c1-c1cn(C2CCN(S(C)(=O)=O)CC2)c2ncc(-c3c(C)noc3C)cc12` [P-0435, 5-(5-(3,5-dimethylisoxazol-4-yl)-1-(1-(methylsulfonyl)piperidin-4-yl)-1H-pyrrolo[2,3-b]pyridin-3-yl)-4,6-diethoxypicolinic acid], the IC50 is 0.0001 to 1 µM. In the case of `CCOc1cc(C(=O)O)nc(OCC)c1-c1cn(-c2cccnc2)c2ncc(-c3c(C)noc3C)cc12` [P-0436, 5-(5-(3,5-dimethylisoxazol-4-yl)-1-(pyridin-3-yl)-1H-pyrrolo[2,3-b]pyridin-3-yl)-4,6-diethoxypicolinic acid], the IC50 lay in the range of 0.0001 to 1 µM. Regarding `Cc1noc(C)c1-c1cnc2c(c1)c(-c1ccc(CC(=O)O)cc1F)cn2-c1ccc(F)cc1F` [P-0437], the IC50 was in the range of 0.0001 to 1 µM.

Consider `Cc1noc(C)c1-c1cnc2c(c1)c(-c1ccc(CC(=O)O)cc1)cn2-c1ccc(F)cc1F` [P-0438, 2-(4-(1-(2,4-difluorophenyl)-5-(3,5-dimethylisoxazol-4-yl)-1H-pyrrolo[2,3-b]pyridin-3-yl)phenyl)acetic acid], for which the IC50 was 0.0001 to 1 µM.

Regarding `Cc1noc(C)c1-c1cnc2c(c1)c(-c1c(Cl)cc(C(=O)O)cc1OC(F)(F)F)cn2-c1cccnn1` [P-0439, 3-chloro-4-(5-(3,5-dimethylisoxazol-4-yl)-1-(pyridazin-3-yl)-1H-pyrrolo[2,3-b]pyridin-3-yl)-5-(trifluoromethoxy)benzoic acid], the IC50 lay within 0.0001 to 1 µM. Consider `COC(=O)c1cc(Cl)c(-c2cn(-c3ccc(C4CC4)nc3)c3ncc(-c4c(C)noc4C)cc23)c(OC(F)(F)F)c1` [P-0440, methyl 3-chloro-4-(1-(6-cyclopropylpyridin-3-yl)-5-(3,5-dimethylisoxazol-4-yl)-1H-pyrrolo[2,3-b]pyridin-3-yl)-5-(trifluoromethoxy)benzoate], for which the IC50 was 1 to 8 µM. For `Cc1noc(C)c1-c1cnc2c(c1)c(-c1c(Cl)cc(C(=O)O)cc1OC(F)(F)F)cn2-c1ccc(C2CC2)nc1` [P-0441, 3-chloro-4-(1-(6-cyclopropylpyridin-3-yl)-5-(3,5-dimethylisoxazol-4-yl)-1H-pyrrolo[2,3-b]pyridin-3-yl)-5-(trifluoromethoxy)benzoic acid], the IC50 was 0.0001 to 1 µM. With `CCOc1cc(C(=O)O)c(F)cc1-c1cn(C2CCN(C(=O)OC(C)(C)C)CC2)c2ncc(-c3c(C)noc3C)cc12` [P-0442, 4-(1-(1-(tert-butoxycarbonyl)piperidin-4-yl)-5-(3,5-dimethylisoxazol-4-yl)-1H-pyrrolo[2,3-b]pyridin-3-yl)-5-ethoxy-2-fluorobenzoic acid] the figure was 0.0001 to 1 µM; with `COc1ccc(CC(=O)O)cc1-c1cn(-c2ccc(F)cc2F)c2ncc(-c3c(C)noc3C)cc12` [P-0443, 2-(3-(1-(2,4-difluorophenyl)-5-(3,5-dimethylisoxazol-4-yl)-1H-pyrrolo[2,3-b]pyridin-3-yl)-4-methoxyphenyl)acetic acid], 0.0001 to 1 µM. For the molecule `Cc1noc(C)c1-c1cnc2c(c1)c(-c1cc(F)c(C(=O)O)cc1OC(F)(F)F)cn2-c1ccc(C2CC2)nc1` [P-0444, 4-(1-(6-cyclopropylpyridin-3-yl)-5-(3,5-dimethylisoxazol-4-yl)-1H-pyrrolo[2,3-b]pyridin-3-yl)-2-fluoro-5-(trifluoromethoxy)benzoic acid], the IC50 lay in the range of 0.0001 to 1 µM. As to `CCOc1cc(C(=O)O)c(F)cc1-c1cn(C2CCN(C(=O)C(C)(C)C)CC2)c2ncc(-c3c(C)noc3C)cc12` [P-0445, 4-(5-(3,5-dimethylisoxazol-4-yl)-1-(1-pivaloylpiperidin-4-yl)-1H-pyrrolo[2,3-b]pyridin-3-yl)-5-ethoxy-2-fluorobenzoic acid], the IC50 was in the range of 0.0001 to 1 µM.

As for `CCOc1cc(C(=O)O)c(F)cc1-c1cn(C2CCN(CCC#N)CC2)c2ncc(-c3c(C)noc3C)cc12` [P-0446, 4-(1-(1-(2-cyanoethyl)piperidin-4-yl)-5-(3,5-dimethylisoxazol-4-yl)-1H-pyrrolo[2,3-b]pyridin-3-yl)-5-ethoxy-2-fluorobenzoic acid], the IC50 was 0.0001 to 1 µM.

For `CCOc1cc(C(=O)O)c(F)cc1-c1cn(C2CCN(C(=O)CO)CC2)c2ncc(-c3c(C)noc3C)cc12` [P-0447, 4-(5-(3,5-dimethylisoxazol-4-yl)-1-(1-(2-hydroxyacetyl)piperidin-4-yl)-1H-pyrrolo[2,3-b]pyridin-3-yl)-5-ethoxy-2-fluorobenzoic acid], the IC50 was in the range of 0.0001 to 1 µM. On to `CCc1onc(C)c1-c1cnc2c(c1)c(-c1c(Cl)cc(C(=O)O)cc1OC(F)(F)F)cn2-c1ccc(C2CC2)nc1` [P-0448, 3-chloro-4-(1-(6-cyclopropylpyridin-3-yl)-5-(5-ethyl-3-methylisoxazol-4-yl)-1H-pyrrolo[2,3-b]pyridin-3-yl)-5-(trifluoromethoxy)benzoic acid], for which the IC50 was in the range of 0.0001 to 1 µM. Consider `Cc1nnn(C)c1-c1cnc2c(c1)c(-c1cccc(C(=O)O)c1)cn2[C@@H](C)c1ccccn1` [P-0449, (S)-3-(5-(1,4-dimethyl-1H-1,2,3-triazol-5-yl)-1-(1-(pyridin-2-yl)ethyl)-1H-pyrrolo[2,3-b]pyridin-3-yl)benzoic acid], for which the IC50 fell in the range of 0.0001 to 1 µM.
